Each block holds one molecule with its values, some of them ahead of it. Calls of active or inactive are those of the source. No cut-off for these calls is given here.
How the values were obtained:
[1] = Metabolic stability in monkey plasma assessed as compound remaining at 10 uM at 60 mins by LC-MS/MS analysis; type: ADME, cell-free, Macaca mulatta; details: rhesus monkey, read-out: Stability
[2] = Chemical stability of the compound at 10 uM at pH 7.4 after 1 hr by LC-MS/MS analysis; type: physicochemical; details: buffer; for remaining at 1 h, 10 µM: pH 7.4, read-out: Stability; for Stability: pH 7.4, 1 h, 10 µM
[3] = Metabolic stability in mouse plasma assessed as compound remaining at 10 uM at 60 mins by LC-MS/MS analysis; type: ADME, cell-free; details: read-out: Stability
[4] = Metabolic stability in human plasma assessed as compound remaining at 10 uM at 60 mins by LC-MS/MS analysis; type: ADME, cell-free; details: read-out: Stability
[5] = Tmax in pig-tail monkey plasma assessed as 6-Diazo-5-oxo-L-norleucine levels at 3.6 mg/kg, iv by LC-MS analysis; type: ADME, organism-based; details: macaca nemestrina, in vivo
[6] = Cmax in pig-tail monkey plasma assessed as 6-Diazo-5-oxo-L-norleucine levels at 3.6 mg/kg, iv by LC-MS analysis; type: ADME, organism-based; set-up: dose 3.6 mg/kg, route intravenous; details: macaca nemestrina, in vivo
[7] = AUC (0 to t) in C57BL/6 mouse plasma assessed as 6-Diazo-5-oxo-L-norleucine levels at 1.8 mg/kg administered via oral gavage measured at 10 to 90 mins post dose by LC-MS analysis; type: ADME, organism-based; details: in vivo
[8] = Prodrug activation in pig-tail monkey CSF assessed as 6-Diazo-5-oxo-L-norleucine levels at 3.6 mg/kg, iv measured at 30 mins post dose by LC-MS analysis; type: organism-based, Cerebrospinal fluid; details: macaca nemestrina, in vivo, 0.5 h
[9] = AUC (0 to t) in pig-tail monkey plasma assessed as 6-Diazo-5-oxo-L-norleucine levels at 3.6 mg/kg, iv measured at 0.25 to 6 hrs post dose by LC-MS analysis; type: ADME, organism-based; set-up: time upper 6 hr, dose 3.6 mg/kg, time lower 0.25 hr, route intravenous; details: macaca nemestrina, in vivo
[10] = Tmax in C57BL/6 mouse plasma assessed as 6-Diazo-5-oxo-L-norleucine levels at 1.8 mg/kg administered via oral gavage by LC-MS analysis; type: ADME, organism-based; details: in vivo
[11] = AUC (0 to t) in C57BL/6 mouse brain assessed as 6-Diazo-5-oxo-L-norleucine levels at 1.8 mg/kg administered via oral gavage measured at 10 to 90 mins post dose by LC-MS analysis; type: ADME, organism-based; details: in vivo
[12] = Cmax in C57BL/6 mouse plasma assessed as 6-Diazo-5-oxo-L-norleucine levels at 1.8 mg/kg administered via oral gavage by LC-MS analysis; type: ADME, organism-based; set-up: dose 1.8 mg/kg, route oral; details: in vivo
[13] = Cmax in C57BL/6 mouse brain assessed as 6-Diazo-5-oxo-L-norleucine levels at 1.8 mg/kg administered via oral gavage by LC-MS analysis; type: ADME, organism-based; set-up: dose 1.8 mg/kg, route oral; details: in vivo
[14] = Ratio of drug level in C57BL/6 mouse brain to plasma assessed as 6-Diazo-5-oxo-L-norleucine levels at 1.8 mg/kg administered via oral gavage; type: ADME, organism-based
Mus musculus [15] = experiment: Toxicity in RHFoxn1nu mouse xenografted with human U87 cells assessed as hunching at 0.8 mg/kg, ip qd for 6 days; type: organism-based, U-87MG ATCC; details: in vivo, 144 h
in vivo [16] = details: macaca nemestrina, plasma, iv, 1.6 mg/kg
Description: AUC (0 to t) in pig-tail monkey plasma at 1.6 mg/kg, iv measured at 0.25 to 6 hrs post dose by LC-MS analysis

[17] = Ratio of drug level in C57BL/6 mouse brain to plasma at 0.8 mg/kg administered via oral gavage; type: ADME, organism-based; details: read-out: BPR
[18] = Tmax in C57BL/6 mouse plasma at 0.8 mg/kg administered via oral gavage by LC-MS analysis; type: ADME, organism-based
[19] = Antitumor activity against human U87 cells xenografted in RHFoxn1nu mouse assessed as reduction in tumor volume at 0.8 mg/kg, ip qd for 6 days measured 2 to 6 days post dose; type: functional, U-87MG ATCC; details: U-87 MG
[20] = Cmax in C57BL/6 mouse brain at 0.8 mg/kg administered via oral gavage by LC-MS analysis; type: ADME, organism-based; set-up: dose 0.8 mg/kg, route oral; details: in vivo
Mus musculus [21] = experiment: Toxicity in RHFoxn1nu mouse xenografted with human U87 cells assessed as ptosis at 0.8 mg/kg, ip qd for 6 days; type: organism-based, U-87MG ATCC; details: in vivo, 144 h
[22] = Antitumor activity against human U87 cells xenografted in RHFoxn1nu mouse assessed as tumor volume at 0.8 mg/kg, ip qd for 6 days measured on day 6 post dose (reference value: 533 mm3); type: functional, U-87MG ATCC
[23] = Drug uptake in pig-tail monkey CSF at 1.6 mg/kg, iv measured at 30 mins post dose by LC-MS analysis; type: ADME, organism-based, Cerebrospinal fluid; details: macaca nemestrina, in vivo, 0.5 h
[24] = Cmax in C57BL/6 mouse plasma at 0.8 mg/kg administered via oral gavage by LC-MS analysis; type: ADME, organism-based; set-up: dose 0.8 mg/kg, route oral
Mus musculus [25] = experiment: Toxicity in RHFoxn1nu mouse xenografted with human U87 cells assessed as lethargy at 0.8 mg/kg, ip qd for 6 days; type: organism-based, U-87MG ATCC; details: in vivo, 144 h
in vivo [26] = details: C57BL/6, mouse, plasma, po, 0.8 mg/kg
Description: AUC (0 to t) in C57BL/6 mouse plasma at 0.8 mg/kg administered via oral gavage measured at 10 to 90 mins post dose by LC-MS analysis

[27] = Antitumor activity against human U87 cells xenografted in RHFoxn1nu mouse assessed as tumor volume at 0.8 mg/kg, ip qd for 6 days measured immediately post dose (reference value: 409 mm3); type: functional, U-87MG ATCC
[28] = Antitumor activity against human U87 cells xenografted in RHFoxn1nu mouse assessed as tumor volume at 0.8 mg/kg, ip qd for 6 days measured on day 4 post dose (reference value: 454 mm3); type: functional, U-87MG ATCC
Mus musculus [29] = experiment: In vivo inhibition of glutamine metabolism in RHFoxn1nu mouse xenografted with human U87 cells assessed as accumulation of endogenous glutamine in tumor at 0.8 mg/kg, ip administered as single dose measured after 2 hrs by HPLC-MS analysis; type: functional, organism-based; details: U-87MG ATCC
[30] = Cmax in pig-tail monkey plasma at 1.6 mg/kg, iv by LC-MS analysis; type: ADME, organism-based; set-up: dose 1.6 mg/kg, route intravenous; details: macaca nemestrina
Mus musculus [31] = experiment: Toxicity in RHFoxn1nu mouse xenografted with human U87 cells assessed as weight loss at 0.8 mg/kg, ip qd for 6 days; type: organism-based, U-87MG ATCC; details: in vivo, 144 h
[32] = Antitumor activity against human U87 cells xenografted in RHFoxn1nu mouse assessed as tumor volume at 0.8 mg/kg, ip qd for 6 days measured on day 2 post dose (reference value: 401 mm3); type: functional, U-87MG ATCC

Compound: CC(C)OC(=O)[C@@H](N)CCC(=O)C=[N+]=[N-]
Stability [2]: Unstable

Compound: CCOC(=O)[C@@H](N)CCC(=O)C=[N+]=[N-]
Stability [2]: Unstable

Compound: CCOC(=O)[C@H](CCC(=O)C=[N+]=[N-])NC(=O)[C@@H](N)CC(C)C
remaining at 1 h, 10 µM [1]: 1%
remaining at 1 h, 10 µM [2]: > 90%
remaining at 1 h, 10 µM [3]: 0%
remaining at 1 h, 10 µM [4]: 1%

Compound: [N-]=[N+]=CC(=O)CC[C@H](N)C(=O)O [6-DIAZO-5-OXO-L-NORLEUCINE]
Activity (Mus musculus [15]): Toxic
AUC(0-t) (in vivo [16]): 42.7 µM·h
Kp [17]: 0.46
Tmax [18]: 10.2 min
inhibition in vivo at 0.8 mg/kg [19]: > 50%
Cmax [20]: 0.56 nmol/g
Activity (Mus musculus [21]): Toxic
Activity [22]: 251 mm3
Drug uptake [23]: 0.33 nmol/g
Cmax [24]: 2200 nM
Activity (Mus musculus [25]): Toxic
AUC(0-t) (in vivo [26]): 1.25 µM·h
Activity [27]: 504 mm3
Activity [28]: 256 mm3
inhibition (Mus musculus [29]): Active
Cmax [30]: 12600 nM
Activity (Mus musculus [31]): 12%
Activity [32]: 364 mm3

Now from value to molecule:

remaining at 1 h, 10 µM [1]: 75%
remaining at 1 h, 10 µM [2]: > 90%
remaining at 1 h, 10 µM [3]: 0%
remaining at 1 h, 10 µM [4]: 88%
Compound: CCC(OC(=O)N[C@@H](CCC(=O)C=[N+]=[N-])C(=O)OC)OC(=O)C(C)(C)C (stereo partly drawn)

remaining at 1 h, 10 µM [1]: 0%
remaining at 1 h, 10 µM [2]: > 90%
remaining at 1 h, 10 µM [3]: 0%
remaining at 1 h, 10 µM [4]: 0%
Compound: Cc1oc(=O)oc1COC(=O)N[C@@H](CCC(=O)C=[N+]=[N-])C(=O)OC(C)C

Tmax [5]: 15 min
remaining at 1 h, 10 µM [1]: 61%
remaining at 1 h, 10 µM [2]: > 90%
Cmax [6]: 2230 nM
AUCt [7]: 1.22 µM·h
Drug metabolism [8]: 1.43 nmol/g
AUCt [9]: 5.71 µM·h
Tmax [10]: 90 min
AUCt [11]: 0.69 nmol·h/g
Cmax [12]: 1500 nM
Cmax [13]: 0.64 nmol/g
remaining at 1 h, 10 µM [3]: 0%
BPR [14]: 0.57
remaining at 1 h, 10 µM [4]: 91%
Compound: COC(=O)[C@H](CCC(=O)C=[N+]=[N-])NC(=O)OC(OC(=O)C(C)(C)C)C(C)C (stereo partly drawn)

remaining at 1 h, 10 µM [1]: 0%
remaining at 1 h, 10 µM [2]: > 90%
remaining at 1 h, 10 µM [3]: 0%
remaining at 1 h, 10 µM [4]: 9%
Compound: CC(C)OC(=O)[C@H](CCC(=O)C=[N+]=[N-])NC(=O)OCOC(=O)C(C)(C)C

remaining at 1 h, 10 µM [1]: 1%
remaining at 1 h, 10 µM [2]: > 90%
remaining at 1 h, 10 µM [3]: 0%
remaining at 1 h, 10 µM [4]: 1%
Compound: CC(C)C[C@H](N)C(=O)N[C@@H](CCC(=O)C=[N+]=[N-])C(=O)OC(C)C

remaining at 1 h, 10 µM [1]: 0%
remaining at 1 h, 10 µM [2]: > 90%
remaining at 1 h, 10 µM [3]: 0%
remaining at 1 h, 10 µM [4]: 0%
Compound: CCOC(=O)[C@H](CCC(=O)C=[N+]=[N-])NC(=O)OCc1oc(=O)oc1C

From ChEMBL document CHEMBL3856236, “Discovery of 6-Diazo-5-oxo-l-norleucine (DON) Prodrugs with Enhanced CSF Delivery in Monkeys: A Potential Treatment for Glioblastoma” (J Med Chem, 2016)
